Assay results as given in ChEMBL document CHEMBL1139671, “Nuphar alkaloids with immediately apoptosis-inducing activity from Nuphar pumilum and their structural requirements for the activity” (2006).

How the values were obtained:
Type in all cases: functional
[1] = test system: B16-F10; test: Cytotoxicity against B16F10 cells at 0.03 uM after 24 hrs; details: Mus musculus, B16-F10, 24 h
[2] = test system: U-937; test: Cytotoxicity against U937 cells at 0.1 uM after 24 hrs; details: Homo sapiens, U-937, 24 h
[3] = test system: B16-F10; test: Cytotoxicity against B16F10 cells at 1.0 uM after 48 hrs; details: Mus musculus, B16-F10, 48 h
[4] = test system: HT-1080; test: Cytotoxicity against HT1080 cells at 0.03 uM after 24 hrs; details: Homo sapiens, HT-1080, 24 h
[5] = test system: HT-1080; test: Cytotoxicity against HT1080 cells at 0.03 uM after 48 hrs; details: Homo sapiens, HT-1080, 48 h
[6] = test system: U-937; test: Cytotoxicity against U937 cells at 1.0 uM after 48 hrs; details: Homo sapiens, U-937, 48 h
[7] = test system: U-937; test: Cytotoxicity against U937 cells at 0.03 uM after 48 hrs; details: Homo sapiens, U-937, 48 h
[8] = test system: HT-1080; test: Cytotoxicity against HT1080 cells at 10 uM after 24 hrs; details: Homo sapiens, HT-1080, 24 h
[9] = test system: U-937; test: Cytotoxicity against U937 cells at 10 uM after 24 hrs; details: Homo sapiens, U-937, 24 h
[10] = test system: HT-1080; test: Cytotoxicity against HT1080 cells at 1.0 uM after 48 hrs; details: Homo sapiens, HT-1080, 48 h
[11] = test system: U-937; test: Cytotoxicity against U937 cells at 10 uM after 72 hrs; details: Homo sapiens, U-937, 72 h
[12] = test system: HT-1080; test: Cytotoxicity against HT1080 cells at 0.1 uM after 48 hrs; details: Homo sapiens, HT-1080, 48 h
[13] = test system: U-937; test: Cytotoxicity against U937 cells at 0.03 uM after 72 hrs; details: Homo sapiens, U-937, 72 h
[14] = test system: HT-1080; test: Cytotoxicity against HT1080 cells at 0.03 uM after 72 hrs; details: Homo sapiens, HT-1080, 72 h
[15] = test system: B16-F10; test: Cytotoxicity against B16F10 cells at 0.03 uM after 72 hrs; details: Mus musculus, B16-F10, 72 h
[16] = test system: U-937; test: Cytotoxicity against U937 cells at 1.0 uM after 72 hrs; details: Homo sapiens, U-937, 72 h
[17] = test system: HT-1080; test: Cytotoxicity against HT1080 cells at 1.0 uM after 72 hrs; details: Homo sapiens, HT-1080, 72 h
[18] = test system: B16-F10; test: Cytotoxicity against B16F10 cells at 0.1 uM after 48 hrs; details: Mus musculus, B16-F10, 48 h
[19] = test system: B16-F10; test: Cytotoxicity against B16F10 cells at 1.0 uM after 24 hrs; details: Mus musculus, B16-F10, 24 h
[20] = test system: HT-1080; test: Cytotoxicity against HT1080 cells at 0.1 uM after 24 hrs; details: Homo sapiens, HT-1080, 24 h
[21] = test system: HT-1080; test: Cytotoxicity against HT1080 cells at 10 uM after 72 hrs; details: Homo sapiens, HT-1080, 72 h
[22] = test system: B16-F10; test: Cytotoxicity against B16F10 cells at 0.1 uM after 24 hrs; details: Mus musculus, B16-F10, 24 h
[23] = test system: B16-F10; test: Cytotoxicity against B16F10 cells at 10 uM after 72 hrs; details: Mus musculus, B16-F10, 72 h
[24] = test system: B16-F10; test: Cytotoxicity against B16F10 cells at 0.1 uM after 72 hrs; details: Mus musculus, B16-F10, 72 h
[25] = test system: B16-F10; test: Cytotoxicity against B16F10 cells at 1.0 uM after 72 hrs; details: Mus musculus, B16-F10, 72 h
[26] = test system: U-937; test: Cytotoxicity against U937 cells at 10 uM after 48 hrs; details: Homo sapiens, U-937, 48 h
[27] = test system: B16-F10; test: Cytotoxicity against B16F10 cells at 10 uM after 24 hrs; details: Mus musculus, B16-F10, 24 h
[28] = test system: B16-F10; test: Cytotoxicity against B16F10 cells at 0.03 uM after 48 hrs; details: Mus musculus, B16-F10, 48 h
[29] = test system: U-937; test: Cytotoxicity against U937 cells at 1.0 uM after 24 hrs; details: Homo sapiens, U-937, 24 h
[30] = test system: HT-1080; test: Cytotoxicity against HT1080 cells at 0.1 uM after 72 hrs; details: Homo sapiens, HT-1080, 72 h
[31] = test system: U-937; test: Cytotoxicity against U937 cells at 0.03 uM after 24 hrs; details: Homo sapiens, U-937, 24 h
[32] = test system: B16-F10; test: Cytotoxicity against B16F10 cells at 10 uM after 48 hrs; details: Mus musculus, B16-F10, 48 h
[33] = test system: HT-1080; test: Cytotoxicity against HT1080 cells at 10 uM after 48 hrs; details: Homo sapiens, HT-1080, 48 h
[34] = test system: HT-1080; test: Cytotoxicity against HT1080 cells at 1.0 uM after 24 hrs; details: Homo sapiens, HT-1080, 24 h
[35] = test system: U-937; test: Cytotoxicity against U937 cells at 0.1 uM after 72 hrs; details: Homo sapiens, U-937, 72 h
[36] = test system: U-937; test: Cytotoxicity against U937 cells at 0.1 uM after 48 hrs; details: Homo sapiens, U-937, 48 h

CC[C@@]1(O)C(=O)OCc2c1cc1n(c2=O)Cc2cc3ccccc3nc2-1 [CAMPTOTHECIN]
inhibition at 0.03 µM [1]: -1.9%
inhibition at 0.1 µM [2]: 46%
inhibition at 1 µM [3]: 83.2%
inhibition at 0.03 µM [4]: -3.8%
inhibition at 0.03 µM [5]: -7.1%
inhibition at 1 µM [6]: 94.6%
inhibition at 0.03 µM [7]: 61.9%
inhibition at 10 µM [8]: 62%
inhibition at 10 µM [9]: 75%
inhibition at 1 µM [10]: 77%
inhibition at 10 µM [11]: 98%
inhibition at 0.1 µM [12]: -11.7%
inhibition at 0.03 µM [13]: 78.5%
inhibition at 0.03 µM [14]: -3.2%
inhibition at 0.03 µM [15]: 33.4%
inhibition at 1 µM [16]: 98.2%
inhibition at 1 µM [17]: 65.8%
inhibition at 0.1 µM [18]: 39.1%
inhibition at 1 µM [19]: 47.8%
inhibition at 0.1 µM [20]: -0.4%
inhibition at 10 µM [21]: 93.8%
inhibition at 0.1 µM [22]: 16.2%
inhibition at 10 µM [23]: 98.1%
inhibition at 0.1 µM [24]: 76.9%
inhibition at 1 µM [25]: 93.5%
inhibition at 10 µM [26]: 98.2%
inhibition at 10 µM [27]: 60.6%
inhibition at 0.03 µM [28]: 7.5%
inhibition at 1 µM [29]: 75.8%
inhibition at 0.1 µM [30]: 5.4%
inhibition at 0.03 µM [31]: 7.1%
inhibition at 10 µM [32]: 94.7%
inhibition at 10 µM [33]: 93.1%
inhibition at 1 µM [34]: 49.5%
inhibition at 0.1 µM [35]: 95.3%
inhibition at 0.1 µM [36]: 90.6%

COc1cc([C@H]2Oc3c(OC)cc(CCCO)cc3[C@@H]2CO)ccc1O [DIHYDRODEHYDRODICONIFERY ALCOHOL]
inhibition at 10 µM [11]: 13.4%
inhibition at 1 µM [16]: 9.3%
inhibition at 1 µM [17]: 5.2%
inhibition at 10 µM [21]: 11.9%
inhibition at 10 µM [23]: -6.5%
inhibition at 0.1 µM [24]: -2.4%
inhibition at 1 µM [25]: -5.3%
inhibition at 0.1 µM [30]: 8.9%

C[C@@H]1CC[C@@H](c2ccoc2)N2C[C@]3(CC[C@@H]12)CS[C@]1(CC[C@H]2[C@H](C)CC[C@@H](c4ccoc4)N2C1)C3 [NEOTHIOBINUPHARIDINE]
inhibition at 1 µM [3]: -8.9%
inhibition at 1 µM [6]: 5.4%
inhibition at 10 µM [9]: 50.7%
inhibition at 1 µM [10]: -4.1%
inhibition at 10 µM [11]: 40.1%
inhibition at 0.1 µM [12]: -1%
inhibition at 1 µM [16]: -1.2%
inhibition at 1 µM [17]: -0.8%
inhibition at 0.1 µM [18]: 4.4%
inhibition at 10 µM [21]: 38%
inhibition at 10 µM [23]: 30.2%
inhibition at 0.1 µM [24]: 8.9%
inhibition at 1 µM [25]: 4%
inhibition at 10 µM [26]: 65.6%
inhibition at 1 µM [29]: 5.2%
inhibition at 0.1 µM [30]: -3.4%
inhibition at 10 µM [32]: 24.7%
inhibition at 10 µM [33]: 7.5%

C[C@H]1CC[C@H]2[C@H](C)CC[C@@H](c3ccoc3)[N+]2([O-])C1 (some centres undefined) [NUPHARIDINE]
inhibition at 10 µM [11]: 11.5%
inhibition at 1 µM [16]: 8%
inhibition at 1 µM [17]: -9%
inhibition at 10 µM [21]: -9%
inhibition at 10 µM [23]: 4.1%
inhibition at 0.1 µM [24]: 0.6%
inhibition at 1 µM [25]: 5.3%
inhibition at 0.1 µM [30]: -3.3%

C[C@@H]1CC[C@@H](c2ccoc2)N2C[C@](C)(O)CC[C@@H]12 [NUPHAROLUTINE]
inhibition at 10 µM [11]: 2.8%
inhibition at 1 µM [16]: 12.5%
inhibition at 1 µM [17]: -13.2%
inhibition at 10 µM [21]: -16.7%
inhibition at 10 µM [23]: -0.9%
inhibition at 0.1 µM [24]: -3.1%
inhibition at 1 µM [25]: -1.2%
inhibition at 0.1 µM [30]: -12.9%

C[C@@H]1CC[C@@H](c2ccoc2)N2C[C@@]3(CC[C@@H]12)CS[C@@]1(CC[C@H]2[C@H](C)CC[C@@H](c4ccoc4)N2C1)C3 [THIOBINUPHARIDINE]
inhibition at 10 µM [11]: 10.9%
inhibition at 1 µM [16]: 6.9%
inhibition at 1 µM [17]: 6.3%
inhibition at 10 µM [21]: -11.7%
inhibition at 10 µM [23]: 4.4%
inhibition at 0.1 µM [24]: 6.8%
inhibition at 1 µM [25]: 7.9%
inhibition at 0.1 µM [30]: 9.9%

C[C@@H]1CC[C@@H](c2ccoc2)N2C[C@@]3(CC[C@@H]12)CS[C@]1(CC[C@H]2[C@H](C)CC[C@@H](c4ccoc4)N2C1)C3 [THIONUPHLUTINE B]
inhibition at 10 µM [11]: 7.8%
inhibition at 1 µM [16]: 9.1%
inhibition at 1 µM [17]: 0.9%
inhibition at 10 µM [21]: -12%
inhibition at 10 µM [23]: 2.2%
inhibition at 0.1 µM [24]: 1.7%
inhibition at 1 µM [25]: -2.2%
inhibition at 0.1 µM [30]: -10.8%
